Columns and labels:
[1] = test system: mip1^G651S and mip1^A692T yeast mutants, Δsml1; experiment: Small colony frequency in mip1 strains with or without SML1 deletion (mtDNA stability); type: cell-based, Saccharomyces cerevisiae; details: 32 μM
Protocol: Deletion of the SML1 gene encoding the inhibitor of RNRI (ribonucleotide diphosphate reductase, enzyme limiting the synthesis pathway of dNTPs) is known to be a genetic suppressor of the instability of the mtDNA caused by mutations in the MIP1 gene (Wang P J, Chabes A, Casagrande R, Tian X C, Thelander L and Huffaker T C. (1997) Rnr4p a novel ribonucleotide reductase small-subunit protein. Mol Cell Biol, 17, 6114-6121).
The frequency of the small colonies was determined for the mip1^G651S and mip1^A692T strains, whether deleted or not from the SML1 gene and in the presence of 32 μM clofilium tosylate or DMSO.
From pre-cultures in selective medium (SC-TRP, 2% ethanol (v/v)) of mutated mip1 strains, 2.10^5 cells/mL were seeded in 2 mL of rich YPD medium in the presence of 32 μM clofilium tosylate or DMSO, then incubated at 28° C. for 24 hours. The cells were then diluted to have about 200 to 250 cells per dish and were spread on differential synthetic medium (SC-TRP, 0.3% glucose, 2% ethanol). The number of small colonies was calculated after 5 days of incubation at 28° C.

[2] = test system: yeast cells expressing the wild-type MIP1 gene or the mutated mip1^G651S gene; experiment: Respiration (O2 consumption) of yeast cells, HANSATECH electrode; type: cell-based, Saccharomyces cerevisiae; details: 32 μM vs DMSO
Protocol: The respiration rate is the amount of oxygen consumed per unit of time and biological material. It reflects the activity of the oxidative metabolism of the cells.
Oxygen consumption was measured on whole cells using a HANSATECH electrode. The yeast cells expressing the wild-type MIP1 gene or the mutated mip1^G651S gene were cultured for 7-8 generations in a YPE medium (1% Yeast Extract, 0.5% Bacto Peptone, 2% Ethanol) supplemented with DMSO or 32 μM clofilium tosylate at 28° C. with stirring. A volume corresponding to a total of 60 units of DO600 of each culture was centrifuged for 5 min at 3000 g. The pellet was resuspended in YPE in order to have 6.10^5 cells/μl. 50 μL, that is to say 3.10^7 cells, were introduced into the measuring chamber of the HANSATECH electrode, which was maintained at 28° C. The O2 consumption was observed and recorded in real time. The O2 consumption rate was calculated from the linear part of the O2 consumption curve.

[3] = test system: wild-type N2 BRISTOL line; details: Caenorhabditis elegans, in vivo, 4 days
Protocol: A series of NGM dishes containing clofilium tosylate at concentrations of 1 μM, 5 μM, 10 μM, 50 μM, 100 μM or 200 μM were prepared (three dishes for each concentration). Between 30 and 40 synchronised L1 larvae of the wild-type N2 BRISTOL line or mutated VC1224 line (polg-1(ok1458Δ/+)/mT1 II; +/mT1 [dpy-10(el28)] II), these being nematodes carrying a heterozygous deletion of 2149 bp in the sequence encoding the polg-1 gene, were deposited on each of these dishes.

[4] = test system: homozygous TB2143 nematodes (polg-1(Δ/Δ)); experiment: Number of laid and hatched eggs of homozygous nematodes; type: in vivo, Caenorhabditis elegans; details: 50 μM vs DMSO
Protocol: Four homozygous TB2143 larvae (polg-1(ok1548Δ/Δ)) at stage L4 were deposited on each NGM dish containing either DMSO or 50 μM clofilium tosylate (three dishes for each treatment group). They were incubated at 20° C. to adulthood stage. The adults were moved every 9 to 12 hours, over 6 to 7 days, to new dishes containing DMSO or 50 μM clofilium tosylate until there were no eggs in the uterus, and the number of laid eggs was counted. Each laying process was monitored until the following day in order to count the hatching.

[5] = test system: homozygous TB2143 nematodes (polg-1(ok1548Δ/Δ)); experiment: Amount of mtDNA of homozygous nematodes depleted of mtDNA; type: in vivo, Caenorhabditis elegans
Protocol: Ten homozygous or wild-type TB2143 larvae (polg-1(ok1548Δ/Δ)) at stage L4 were deposited on each NGM dish containing either DMSO or 50 μM clofilium tosylate (three dishes for each treatment group). They were incubated at 20° C. until the 6th day of adulthood. Extraction of the total nematode DNAs was performed with the Nucleospin Kit Tissue kit (Macherey Nagel). The quantifications of mtDNA and nuclear DNA were performed as described in Addo et al., 2010 (Addo, M. G., Cossard, R., Pichard, D., Obiri-Danso, K., Rötig, A. and Delahodde, A. (2010) Caenorhabditis elegans, a pluricellular model organism to screen new genes involved in mitochondrial genome maintenance. BBA-Mol. Basis Dis., 1802, 765-773).

[6] = test system: mitochondrial proteins POLG, TFAM and ATP5B; experiment: Amount of POLG, TFAM and ATP5B proteins in fibroblasts (western blot), cell growth conditions; type: cell-based, human; details: 0.5 μM or 1.0 μM, control and patient fibroblasts
Protocol: Protein fractions of total extracts of control fibroblasts and of fibroblasts from a patient with a mutation on each allele of the POLG gene cultured in the presence of 0.1% DMSO or with 0.5 μM or 1.0 μM clofilium tosylate were analysed by electrophoresis.
Skin fibroblasts from the control and from the patient were cultured to 100% confluence in a complete Dulbecco's Modified Eagle Medium (DMEM) high glucose medium (4.5 g/L D-glucose, 110 mg/L sodium pyruvate, 10% foetal bovine serum, 1% penicillin/streptomycin from the stock solution containing 10,000 I.U. penicillin and 10,000 μg/mL streptomycin) at 37° C. under 5% CO2. At confluence, the cultures were trypsinised and placed in culture at 30% confluence in a complete DMEM high glucose medium supplemented with either 0.1% DMSO or with 0.5 μM or 1.0 μM clofilium tosylate. The cells were then incubated at 37° C. under 5% CO2 and harvested at 100% confluence. After trypsinisation, the total proteins of the fibroblasts were extracted and analysed by western blot. The proteins studied were the POLG protein (subjected to SDS/PAGE gel analysis (6%)), the mitochondrial proteins ATP5B and TFAM, and the cytosolic protein TUB3A as batch control.

## CCCCCCC[N+](CC)(CC)CCCCc1ccc(Cl)cc1.Cc1ccc(S(=O)(=O)[O-])cc1 [clofilium tosylate]
[1]
  stability of the mtDNA, clofilium tosylate together with availability of dNTPs (SML1 deletion): additive effect
[2]
  respiration of yeast cells (O2 consumption): breathed better
[3]
  concentration at which a halt in development at stage L3 or a slowdown in development was observed: 100 µM
  maximum concentration to use: 50 µM
[4]
  hatching of embryos: increased
  number of laid eggs: increased
[5]; 50 μM vs DMSO
  amount of mtDNA of homozygous TB2143 nematodes: Clofilium tosylate increased the amount of mtDNA of homozygous TB2143 nematodes (polg-1(ok1548Δ/Δ)) depleted of mtDNA.
[5]; polg-1(ok1548Δ/Δ), 50 μM, 6th day of adulthood
  mtDNA/nuDNA: 69.2
[6]
  amount of mitochondrial proteins POLG, TFAM and ATP5B: increased
